Measurements from BindingDB's records for doi:10.1016/j.bmcl.2009.03.071 (Wyeth Research, 2009).

Assays:
Experiment in all cases: Radioligand Binding Assay (Ki)
Conditions in all cases: pH 7.4; 22 °C
[1] = target: T1, 5-hydroxytryptamine receptor 1A (Homo sapiens, UniProt P08908)
T1 sequence (P08908 whole entry): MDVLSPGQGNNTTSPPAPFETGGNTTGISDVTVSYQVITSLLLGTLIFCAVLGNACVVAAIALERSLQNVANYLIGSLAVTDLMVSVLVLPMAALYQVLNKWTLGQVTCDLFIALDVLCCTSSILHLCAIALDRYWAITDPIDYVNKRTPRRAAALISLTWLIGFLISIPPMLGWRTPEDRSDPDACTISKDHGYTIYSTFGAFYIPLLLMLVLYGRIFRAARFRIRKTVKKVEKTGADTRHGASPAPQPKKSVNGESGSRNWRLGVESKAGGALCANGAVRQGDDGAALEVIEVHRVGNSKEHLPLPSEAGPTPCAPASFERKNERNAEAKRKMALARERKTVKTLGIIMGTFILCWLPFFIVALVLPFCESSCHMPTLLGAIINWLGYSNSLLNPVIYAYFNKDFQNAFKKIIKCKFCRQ
Procedure: (§1) Competition experiments were performed in the presence radioligand with membrane protein (obtained from cells expressing the receptor) and test compounds. The mixture was incubated at room temperature for 60 min and the reaction stopped by rapid filtration onto a 96-well GF/B filter using a Packard Filtermate harvester. Radioactivity retained on the filters was measured by liquid scintillation in a Packard TopCount. IC50 values for test compounds were determined from nonlinear regression analysis of data collected from ligand binding experiments. The inhibition constant (Ki) was calculated from IC50 value by the Cheng and Prusoff equation.

[2] = target: 5-hydroxytryptamine receptor 1B (Homo sapiens, UniProt P28222)
Chain of 5-hydroxytryptamine receptor 1B (P28222 whole entry): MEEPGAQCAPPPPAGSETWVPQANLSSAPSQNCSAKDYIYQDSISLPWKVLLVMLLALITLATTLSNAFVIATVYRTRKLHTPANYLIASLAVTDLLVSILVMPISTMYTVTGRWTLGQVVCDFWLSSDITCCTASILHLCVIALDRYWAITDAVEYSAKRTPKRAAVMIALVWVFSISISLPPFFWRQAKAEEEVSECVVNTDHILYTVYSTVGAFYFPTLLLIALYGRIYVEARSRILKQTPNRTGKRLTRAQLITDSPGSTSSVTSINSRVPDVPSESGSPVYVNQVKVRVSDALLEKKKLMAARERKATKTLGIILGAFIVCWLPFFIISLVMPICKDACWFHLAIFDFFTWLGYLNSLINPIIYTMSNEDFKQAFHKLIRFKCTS
Procedure: as §1

[3] = target: 5-hydroxytryptamine receptor 1D (Homo sapiens, UniProt P28221)
Chain of 5-hydroxytryptamine receptor 1D (P28221 whole entry): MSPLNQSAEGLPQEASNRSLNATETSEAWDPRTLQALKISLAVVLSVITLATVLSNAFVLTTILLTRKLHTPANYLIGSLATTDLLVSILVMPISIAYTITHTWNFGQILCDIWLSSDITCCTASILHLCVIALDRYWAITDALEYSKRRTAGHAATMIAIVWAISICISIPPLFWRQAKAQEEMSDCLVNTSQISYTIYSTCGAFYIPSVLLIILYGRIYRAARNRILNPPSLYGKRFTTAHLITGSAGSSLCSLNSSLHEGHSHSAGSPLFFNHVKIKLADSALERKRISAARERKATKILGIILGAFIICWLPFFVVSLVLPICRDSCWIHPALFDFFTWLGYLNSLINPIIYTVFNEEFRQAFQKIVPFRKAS
Procedure: as §1

[4] = target: 5-hydroxytryptamine receptor 2B (Homo sapiens, UniProt P41595)
Chain of 5-hydroxytryptamine receptor 2B (P41595 whole entry): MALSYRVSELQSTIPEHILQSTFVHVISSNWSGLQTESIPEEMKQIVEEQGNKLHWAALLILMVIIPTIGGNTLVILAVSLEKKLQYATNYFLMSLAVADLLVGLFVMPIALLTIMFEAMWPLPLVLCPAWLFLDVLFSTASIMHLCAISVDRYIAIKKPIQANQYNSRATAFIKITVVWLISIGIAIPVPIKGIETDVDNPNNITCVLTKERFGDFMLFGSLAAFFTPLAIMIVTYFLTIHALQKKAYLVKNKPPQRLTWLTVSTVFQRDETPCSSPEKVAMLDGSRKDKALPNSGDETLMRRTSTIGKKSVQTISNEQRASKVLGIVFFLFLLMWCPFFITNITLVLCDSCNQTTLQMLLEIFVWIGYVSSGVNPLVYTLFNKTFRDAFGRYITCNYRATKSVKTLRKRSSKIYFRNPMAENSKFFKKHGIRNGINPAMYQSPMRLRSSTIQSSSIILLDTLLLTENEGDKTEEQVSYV
Procedure: as §1

[5] = target: T2, 5-hydroxytryptamine receptor 2C (Homo sapiens, UniProt P28335)
T2 sequence (P28335 whole entry): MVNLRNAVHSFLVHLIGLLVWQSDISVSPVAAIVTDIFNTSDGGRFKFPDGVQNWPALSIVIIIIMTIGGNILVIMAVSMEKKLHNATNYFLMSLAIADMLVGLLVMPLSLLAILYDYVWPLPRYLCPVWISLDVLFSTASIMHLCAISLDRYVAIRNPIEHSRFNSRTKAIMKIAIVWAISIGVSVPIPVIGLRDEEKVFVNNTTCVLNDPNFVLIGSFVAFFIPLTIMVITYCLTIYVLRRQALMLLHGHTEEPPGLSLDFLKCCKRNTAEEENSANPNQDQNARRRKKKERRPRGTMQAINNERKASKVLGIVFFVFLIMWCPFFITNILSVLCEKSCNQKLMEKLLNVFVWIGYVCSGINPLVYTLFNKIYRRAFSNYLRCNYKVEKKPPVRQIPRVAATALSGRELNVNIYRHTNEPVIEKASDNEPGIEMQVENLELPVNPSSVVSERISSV
Procedure: as §1

[6] = target: 5-hydroxytryptamine receptor 7 (Homo sapiens, UniProt P34969)
Chain of 5-hydroxytryptamine receptor 7 (P34969 whole entry): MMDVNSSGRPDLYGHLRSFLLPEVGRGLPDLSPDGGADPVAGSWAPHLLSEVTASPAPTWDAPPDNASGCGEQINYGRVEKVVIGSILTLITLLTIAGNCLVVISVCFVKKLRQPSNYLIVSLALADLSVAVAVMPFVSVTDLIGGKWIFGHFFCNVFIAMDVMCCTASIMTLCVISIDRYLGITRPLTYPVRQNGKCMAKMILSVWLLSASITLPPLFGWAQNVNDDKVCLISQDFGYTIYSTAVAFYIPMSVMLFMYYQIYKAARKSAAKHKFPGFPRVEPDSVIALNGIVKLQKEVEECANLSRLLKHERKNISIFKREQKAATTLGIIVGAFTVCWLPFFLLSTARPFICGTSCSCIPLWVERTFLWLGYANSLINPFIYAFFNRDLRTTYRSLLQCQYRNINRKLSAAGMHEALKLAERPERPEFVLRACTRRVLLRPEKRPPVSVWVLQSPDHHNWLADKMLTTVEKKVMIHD
Procedure: as §1

D(2) dopamine receptor = D(2) dopamine receptor (Homo sapiens, UniProt P14416)
Chain of D(2) dopamine receptor (P14416 whole entry): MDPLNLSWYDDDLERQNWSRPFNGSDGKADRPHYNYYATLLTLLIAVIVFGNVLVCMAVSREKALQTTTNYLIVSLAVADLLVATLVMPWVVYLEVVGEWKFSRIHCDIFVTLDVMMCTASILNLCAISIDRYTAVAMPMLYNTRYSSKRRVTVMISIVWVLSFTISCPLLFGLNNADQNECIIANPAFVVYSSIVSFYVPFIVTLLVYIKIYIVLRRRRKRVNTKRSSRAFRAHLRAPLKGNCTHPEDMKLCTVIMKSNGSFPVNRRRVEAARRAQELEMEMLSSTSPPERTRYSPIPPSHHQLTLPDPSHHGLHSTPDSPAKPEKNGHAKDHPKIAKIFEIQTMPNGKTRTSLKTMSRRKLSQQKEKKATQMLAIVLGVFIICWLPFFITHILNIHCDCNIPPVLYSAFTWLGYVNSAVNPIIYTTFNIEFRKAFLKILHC
Procedure: as §1

SMILES: NCCC(=O)Nc1ccc2cnn(S(=O)(=O)c3cccc4ccccc34)c2c1 [3-amino-N-[1-(naphthalene-1-sulfonyl)-1H-indazol-6-yl]propanamide]
- Ki [1]: 6.4 µM
- Ki [2]: > 2 µM
- Ki [3]: > 2 µM
- Ki [4]: 0.155 µM
- Ki [5]: > 2 µM
- Ki [6]: 5.1 µM
- Ki (D(2) dopamine receptor): > 2 µM
